Calls of active or inactive are those of the source. The calls are words filed in the database; no cut-off is given here.
Columns and labels:
L1210 [1] = assay: Antineoplastic activity against mouse L1210 cells allografted in BDF1 mouse at 50 mg/kg administered qd for 1 to 9 days starting 24 hrs after tumor cell implantation relative to control; type: functional
P388 [2] = assay: Antineoplastic activity against mouse P388 cells allografted in BDF1 mouse administered qd for 1 to 9 days starting 24 hrs after tumor cell implantation; type: functional, cell-based
KB = assay: Antineoplastic activity against human KB cells; type: functional, cell-based
L1210 [3] = assay: Antineoplastic activity against mouse L1210 cells allografted in BDF1 mouse administered qd for 1 to 9 days starting 24 hrs after tumor cell implantation; type: functional, cell-based
P388 [4] = assay: Antineoplastic activity against mouse P388 cells allografted in BDF1 mouse at 800 mg/kg administered qd for 1 to 9 days starting 24 hrs after tumor cell implantation relative to control; type: functional

SMILES	T/C (L1210 [1])	Activity (P388 [2])	Activity (KB)	Activity (L1210 [3])	T/C (P388 [4])
CNC(=O)Nc1ccc(C(=O)NC(C)C)cc1	132	–	–	–	–
CO/[N+](=C\c1ccccc1)Cc1ccc(C(=O)NC(C)C)cc1	–	inactive	inactive	inactive	–
CNC(=S)Nc1ccc(C(=O)NC(C)C)cc1	–	inactive	inactive	inactive	–
CC(C)NC(=O)c1ccc(CBr)cc1	–	–	Active	–	–
CNNCc1ccc(/C=N/NC(N)=S)cc1	–	inactive	inactive	inactive	–
CNNCc1c[nH]c(=O)[nH]c1=O	–	inactive	inactive	inactive	–
CC(C)NC(=O)c1ccc(CON(C)C(=O)OCc2ccccc2)cc1	–	inactive	inactive	inactive	–
CC(C)NC(=O)c1ccc(CONC(=O)OCc2ccccc2)cc1	–	inactive	inactive	inactive	–
CNC(=S)NCc1ccc(C(=O)NC(C)C)cc1	–	inactive	inactive	inactive	–
CNC(=O)NCc1ccc(C(=O)NC(C)C)cc1	–	inactive	inactive	inactive	–
CNOCc1ccc(C(=O)NC(C)C)cc1	–	inactive	inactive	inactive	–
CC(C)NC(=O)c1ccc(C/[N+]([O-])=C/c2ccccc2)cc1	–	–	–	–	153
CONCc1ccc(C(=O)NC(C)C)cc1	–	inactive	inactive	inactive	–

— ChEMBL document CHEMBL3228046, “A structural modification study of procarbazine” (1979)
